What follows are molecules tested on Rattus norvegicus (assay: Tested for the decrease in blood pressure at a dose of ~5 mg/kg by intravenous administration for ~24h).
Type: functional

Compound | Blood pressure
CCCCCc1nc(SCc2ccc(-c3ccccc3C(=O)O)cc2)nn1Cc1ccc(-c2ccccc2C(=O)O)cc1 | 24 mmHg

These molecules were tested against Oryctolagus cuniculus angiotensin II receptor (assay: Inhibition of angiotensin II induced contractions in rabbit aortic ring preparation.).

Compound | pA2
O=C(O)c1ccccc1-c1ccc(CSc2nc(Cc3ccccc3)n(Cc3ccc(-c4ccccc4C(=O)O)cc3)n2)cc1 | 7
CCCCCCCCc1nc(S(=O)(=O)Cc2ccc(-c3ccccc3C(=O)O)cc2)nn1Cc1ccc(-c2ccccc2C(=O)O)cc1 | 6.1
CCCCCCCc1nc(S(=O)(=O)Cc2ccc(-c3ccccc3C(=O)O)cc2)nn1Cc1ccc(-c2ccccc2C(=O)O)cc1 | 6.5
CCCCCCCc1nc(SCc2ccc(-c3ccccc3C(=O)O)cc2)nn1Cc1ccc(-c2ccccc2C(=O)O)cc1 | 6.7
CCCCCc1nc(SCc2ccc(-c3ccccc3C(=O)O)cc2)nn1Cc1ccc(-c2ccccc2C#N)cc1 | < 5
CCCCc1nc(SCc2ccc(-c3ccccc3C(=O)O)cc2)n(Cc2ccc(-c3ccccc3C(=O)O)cc2)n1 | 7
CCCCCCc1nc(S(=O)(=O)Cc2ccc(-c3ccccc3C(=O)O)cc2)nn1Cc1ccc(-c2ccccc2C(=O)O)cc1 | 8.1
CC(C)Cc1nc(SCc2ccc(-c3ccccc3C(=O)O)cc2)nn1Cc1ccc(-c2ccccc2C(=O)O)cc1 | 7.5
CCCCc1nc(SCc2ccc(-c3ccccc3C(=O)OC)cc2)nn1Cc1ccc(-c2ccccc2C(=O)OC)cc1 | < 5
CCCCc1nc(SCc2ccc(-c3ccccc3C(=O)O)cc2)nn1Cc1ccc(-c2ccccc2C(=O)O)cc1 | 8.3
CCCCCc1nc(SCc2ccc(-c3ccccc3C(=O)OC)cc2)nn1Cc1ccc(-c2ccccc2C(=O)OC)cc1 | < 5
O=C(O)c1ccccc1-c1ccc(CSc2nc(Cc3ccccc3)nn2Cc2ccc(-c3ccccc3C(=O)O)cc2)cc1 | 6.1
CCCCCCCc1nc(SCc2ccc(-c3ccccc3C(=O)O)cc2)n(Cc2ccc(-c3ccccc3C(=O)O)cc2)n1 | 5.9
CCCCCc1nc(SCc2ccc(-c3ccccc3C(=O)O)cc2)nn1Cc1ccc(-c2ccccc2C(=O)O)cc1 | 8.4
CCCCCc1nc(SCc2ccc(-c3ccccc3C#N)cc2)nn1Cc1ccc(-c2ccccc2C(=O)O)cc1 | 6.3
CCCCCCc1nc(SCc2ccc(-c3ccccc3C(=O)O)cc2)nn1Cc1ccc(-c2ccccc2C(=O)O)cc1 | 8
CCCCCc1nc(SCc2ccc(-c3ccccc3C(=O)O)cc2)n(Cc2ccc(-c3ccccc3C(=O)O)cc2)n1 | 7.2

These molecules were tested on Rattus norvegicus (assay: Tested for the decrease in blood pressure at a dose of ~10 mg/kg by intravenous administration for ~24h).
Type: functional

Compound | Blood pressure
CCCCc1nc(Cl)c(CO)n1Cc1ccc(-c2ccccc2-c2nnn[nH]2)cc1 [LOSARTAN] | 37 mmHg

— ChEMBL document CHEMBL1127194, “1,3- And 1,5-bisbiphenylyl substituted 3-metcaptotriazoles as angiotensin II receptor antagonists” (Bioorg Med Chem Lett, 1993)
